From PubChem BioAssay AID2060886 (Molecular Pharmacology Branch, DTP, NCI, 2025)

System: 653999-131-R-J2-PDC complex spheroids, growth inhibition
Experiment: Anticancer human tumor 653999-131-R-J2-PDC patient-derived lung adenocarcinoma cell line growth inhibition [RAS]
Conditions: for IC50: curve of first compound; for viability, T/C: stronger effect = lower value
Summary of the method: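 Tumour cells grown as complex spheroids with HUVEC endothelial cells and mesenchymal stem cells, treated with RAS pathway inhibitor combinations. Each agent spans half-log steps from near clinical Cmax, or 10 microM where Cmax is unknown.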
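Further: spheroids exposed to the agents for seven days before the readout.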

In the case of `CC(C)NCC(C(=O)N1CCN(c2ncnc3c2C(C)CC3O)CC1)c1ccc(Cl)cc1` (configuration not stated) + CCn1c(-c2cc(N3CCN(C)CC3)cnc2C(C)OC)c2c3cc(ccc31)-c1csc(n1)CC(NC(=O)C1CC1C)C(=O)N1CCCC(N1)C(=O)OCC(C)(C)C2, the IC50 (second compound 0.000949 µM) is reported as 0.649 µM, the IC50 (second compound 0.003 µM) is reported as 0.19 µM and the IC50 (second compound 0.00949 µM) is reported as less than 0.0316 µM. The IC50 (second compound 0.03 µM) was less than 0.0316 µM, the IC50 (second compound 0.0949 µM) was less than 0.0316 µM and the IC50 (second compound 0.3 µM) was less than 0.0316 µM. For the same compound, the viability, T/C (second compound 0.000949 µM, first compound 0.0316 µM) was 79.2%, the viability, T/C (second compound 0.000949 µM, first compound 0.1 µM) was 89.7% and the viability, T/C (second compound 0.000949 µM, first compound 0.316 µM) was 61.1%. For the same compound, the viability, T/C (second compound 0.000949 µM, first compound 1 µM) was 43.9%, the viability, T/C (second compound 0.000949 µM, first compound 3.16 µM) was 26.6% and the viability, T/C (second compound 0.000949 µM, first compound 10 µM) was 26.9%. The viability, T/C (second compound 0.003 µM, first compound 0.0316 µM) was 72.5%, the viability, T/C (second compound 0.003 µM, first compound 0.1 µM) was 52.9% and the viability, T/C (second compound 0.003 µM, first compound 0.316 µM) was 50.8%. It also gave a viability, T/C (second compound 0.003 µM, first compound 1 µM) of 29.6%, a viability, T/C (second compound 0.003 µM, first compound 3.16 µM) of 26.6% and a viability, T/C (second compound 0.003 µM, first compound 10 µM) of 20.4%. It also gave a viability, T/C (second compound 0.00949 µM, first compound 0.0316 µM) of 49.7%, a viability, T/C (second compound 0.00949 µM, first compound 0.1 µM) of 39.6% and a viability, T/C (second compound 0.00949 µM, first compound 0.316 µM) of 38.4%. It also gave a viability, T/C (second compound 0.00949 µM, first compound 1 µM) of 28.8%, a viability, T/C (second compound 0.00949 µM, first compound 3.16 µM) of 16.4% and a viability, T/C (second compound 0.00949 µM, first compound 10 µM) of 14.4%. For the same compound, the viability, T/C (second compound 0.03 µM, first compound 0.0316 µM) was 34.2%, the viability, T/C (second compound 0.03 µM, first compound 0.1 µM) was 36.5% and the viability, T/C (second compound 0.03 µM, first compound 0.316 µM) was 23.9%. For the same compound, the viability, T/C (second compound 0.03 µM, first compound 1 µM) was 18.6%, the viability, T/C (second compound 0.03 µM, first compound 3.16 µM) was 10.3% and the viability, T/C (second compound 0.03 µM, first compound 10 µM) was 9.69%. For the same compound, the viability, T/C (second compound 0.0949 µM, first compound 0.0316 µM) was 27.3%, the viability, T/C (second compound 0.0949 µM, first compound 0.1 µM) was 23.8% and the viability, T/C (second compound 0.0949 µM, first compound 0.316 µM) was 18.5%. The viability, T/C (second compound 0.0949 µM, first compound 1 µM) was 13.7%, the viability, T/C (second compound 0.0949 µM, first compound 3.16 µM) was 9.85% and the viability, T/C (second compound 0.0949 µM, first compound 10 µM) was 5.97%. The viability, T/C (second compound 0.3 µM, first compound 0.0316 µM) was 24%, the viability, T/C (second compound 0.3 µM, first compound 0.1 µM) was 20.4% and the viability, T/C (second compound 0.3 µM, first compound 0.316 µM) was 20.9%. The viability, T/C (second compound 0.3 µM, first compound 1 µM) was 14.7%, the viability, T/C (second compound 0.3 µM, first compound 3.16 µM) was 8.46% and the viability, T/C (second compound 0.3 µM, first compound 10 µM) was 5.88%.
